The record followed here is patent US20030073850A1, “4-Imidazole derivatives of benzyl and restricted benzyl sulfonamides, sulfamides, ureas, carbamates, and amides and their use” (priority 1998, published 2003).

The test system of data set [1] is anesthetized dogs. Description: Urethral pressure profile in anesthetized dogs. The format is in vivo, dog. The note with it: increasing iv doses, FIG. 1. The method, then: Dogs instrumented and anesthetized as decribed above were placed in left lateral recumbency and a dual pressure sensor catheter (SPC-771, Millar Instruments, Houston, Tex.) was inserted into the urethra and advanced into the bladder. The proximal pressure sensor was interfaced to a M12 computerized data acquisition system for the measurement of lower urinary tract pressures. At a resting intravesical pressure of approximately 5 cm of H2O, urethral pressure was measured from the sensor as the catheter was withdrawn using a modified syringe pump (Model 22, Harvard Apparatus, South Natick, Mass.) at its maximal rate of 0.83 mm/sec. Measurement from the proximal sensor allowed easy reinsertion as the distal 5 cm of the catheter remains in the urethra after the total profile has been obtained. Three resting urethral pressure profiles were obtained at 5 minute intervals before dosing, then a single profile was initiated 30 sec after each increasing iv dose during the time corresponding to the maximum arterial pressure effects of that dose. The increase in arterial pressure seen after each agonist dose was allowed to return to baseline before the next dose was given.

Data set [2] deals with T1, α1B (rat spleen) (Rattus norvegicus, UniProt P15823).
T1 construct: α1B (rat spleen) and α1D (rat aorta) receptors; from tissue; host or cells: rat spleen
T1 sequence (P15823 1-515): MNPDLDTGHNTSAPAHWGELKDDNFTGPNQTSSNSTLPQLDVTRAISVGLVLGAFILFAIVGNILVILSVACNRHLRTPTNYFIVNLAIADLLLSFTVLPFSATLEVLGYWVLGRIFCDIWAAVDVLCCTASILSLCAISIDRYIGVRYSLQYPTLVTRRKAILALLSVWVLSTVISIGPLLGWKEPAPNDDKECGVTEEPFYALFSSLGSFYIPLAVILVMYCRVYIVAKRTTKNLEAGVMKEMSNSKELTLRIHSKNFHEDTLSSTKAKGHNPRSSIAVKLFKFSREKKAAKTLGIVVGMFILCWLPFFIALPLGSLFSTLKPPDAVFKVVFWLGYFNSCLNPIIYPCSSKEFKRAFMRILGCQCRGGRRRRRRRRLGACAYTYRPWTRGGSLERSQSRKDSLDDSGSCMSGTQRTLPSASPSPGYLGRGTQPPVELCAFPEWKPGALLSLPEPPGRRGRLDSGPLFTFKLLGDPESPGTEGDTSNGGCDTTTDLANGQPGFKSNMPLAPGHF
Kind of data set: Agonist tissue response, contraction of rat spleen. The data set is classed as biochemical. The note with it: read-out: Agonist Tissue Response (pD2) α1B (rat spleen) (converted).

Data set [3] addresses T2, α1d (rat receptor expressed in mouse fibroblasts) (Rattus norvegicus, UniProt P23944).
T2 construct: expressed in transfected cells; host or cells: mouse fibroblasts
T2 sequence (P23944 1-561): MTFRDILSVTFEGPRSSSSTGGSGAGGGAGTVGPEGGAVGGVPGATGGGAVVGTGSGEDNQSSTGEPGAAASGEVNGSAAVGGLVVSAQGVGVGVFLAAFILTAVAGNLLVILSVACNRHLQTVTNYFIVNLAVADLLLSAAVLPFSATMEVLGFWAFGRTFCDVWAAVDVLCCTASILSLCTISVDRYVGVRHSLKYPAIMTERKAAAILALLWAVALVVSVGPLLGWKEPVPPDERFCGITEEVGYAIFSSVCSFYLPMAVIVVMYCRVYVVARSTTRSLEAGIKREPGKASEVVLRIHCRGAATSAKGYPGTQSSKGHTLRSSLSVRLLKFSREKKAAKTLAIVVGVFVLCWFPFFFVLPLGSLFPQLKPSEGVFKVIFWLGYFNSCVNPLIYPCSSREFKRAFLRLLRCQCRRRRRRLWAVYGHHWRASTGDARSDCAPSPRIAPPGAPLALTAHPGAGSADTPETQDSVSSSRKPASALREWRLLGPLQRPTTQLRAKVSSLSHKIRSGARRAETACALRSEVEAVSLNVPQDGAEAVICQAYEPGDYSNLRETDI
Description: Radioligand binding, [3H]-prazosin, α1d. The method, boiled down:
(§1)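 [3H]-prazosin radioligand displacement; α1A from rat submaxillary gland tissue, α1b hamster and α1d rat receptors each expressed in mouse fibroblasts.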

Data set [4] addresses T3, α1b (hamster receptor expressed in mouse fibroblasts) (Mesocricetus auratus, UniProt P18841).
T3 construct: expressed in transfected cells; host or cells: mouse fibroblasts
T3 sequence (P18841 1-515): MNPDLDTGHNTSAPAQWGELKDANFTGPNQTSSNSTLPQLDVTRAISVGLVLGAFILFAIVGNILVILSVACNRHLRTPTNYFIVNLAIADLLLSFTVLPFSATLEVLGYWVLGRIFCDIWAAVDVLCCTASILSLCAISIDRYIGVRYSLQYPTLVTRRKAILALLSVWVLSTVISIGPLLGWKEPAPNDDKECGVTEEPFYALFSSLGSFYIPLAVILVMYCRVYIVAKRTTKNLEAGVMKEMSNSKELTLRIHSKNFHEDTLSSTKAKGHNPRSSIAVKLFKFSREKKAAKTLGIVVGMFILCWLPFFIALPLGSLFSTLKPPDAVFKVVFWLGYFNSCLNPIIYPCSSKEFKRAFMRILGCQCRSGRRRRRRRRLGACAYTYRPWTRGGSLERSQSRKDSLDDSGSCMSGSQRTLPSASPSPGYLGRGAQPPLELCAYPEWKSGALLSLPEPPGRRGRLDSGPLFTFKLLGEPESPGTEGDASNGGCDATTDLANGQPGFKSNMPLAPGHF
Kind of data set: Radioligand binding, [3H]-prazosin, α1b. In short, it runs like this: as §1

As usually defined, the melting point is the temperature, or range, at which the solid turns liquid. For orientation: Ki means a dissociation constant, usually derived from enzyme kinetics or from competition with a known ligand.

Compound `CS(=O)(=O)Nc1cccc2c1CCCC2c1c[nH]cn1.Cl` (centres unmarked) [Example 8, N-[5-(1H-imidazol-4-yl)-5,6,7,8-tetrahydro-1-naphthalenyl]methanesulfonamide, Hydrochloride] displayed a melting point of 113 to 114 °C. The urethral pressure profile entry in data set [1] was “corresponding increases in the urethral pressure”.

Take `CCS(=O)(=O)Nc1cccc(C(=C2CCCCC2)c2c[nH]cn2)c1` [Example 56]: the EC50 in data set [2] was 186 µM. For the same compound, the values for the Ki in data set [3] and in data set [4] were 0.00246 µM and 0.0161 µM, respectively.
